In the supplement of paper PMC11061612:

Legend:
AZD5991 = compound: Cc1c2c(nn1C)CSCc1cc(n(C)n1)CSc1cc(c3ccccc3c1)OCCCc1c(C(=O)O)n(C)c3c-2c(Cl)ccc13 [AZD5991]; details: max 1 µM
Summary of the method: (§1)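 Cancer cell lines were seeded in 1536-well plates in 7.5 μl DMEM/F12 or RPMI with 10% FBS, held 24 hours at 37°C and 5% CO2, then dosed for 72 hours (final DMSO typically 0.2%). Viability was read by CellTiter-Glo 2.0 luminescence and scaled between blank-well and DMSO-well means. The single-agent IC50 comes from dose responses fitted to a two-parameter logistic curve with a non-linear mixed effects model.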

AZD1390 = compound: CC(C)n1c(=O)n(C)c2cnc3cc(F)c(-c4ccc(OCCCN5CCCCC5)nc4)cc3c21 [AZD1390]; details: max 0.3 µM
Summary of the method: as §1

Gemcitabine = compound: Nc1ccn([C@@H]2O[C@H](CO)[C@@H](O)C2(F)F)c(=O)n1 [Gemcitabine]; details: max 0.3 µM
Summary of the method: as §1

AZD5363 = compound: C1CN(CCC1(C(=O)N[C@@H](CCO)C2=CC=C(C=C2)Cl)N)C3=NC=NC4=C3C=CN4 [AZD5363]; details: max 10 µM
Summary of the method: as §1

SN-38 = compound: CCc1c2c(nc3ccc(O)cc13)-c1cc3c(c(=O)n1C2)COC(=O)[C@]3(O)CC [SN-38]; details: max 0.3 µM
Summary of the method: as §1

AZD8186 = compound: C[C@@H](Nc1cc(F)cc(F)c1)c1cc(C(=O)N(C)C)cc2c(=O)cc(N3CCOCC3)oc12 [AZD8186]; details: max 10 µM
Summary of the method: as §1

5-Fluorouracil = compound: O=c1[nH]cc(F)c(=O)[nH]1 [5-Fluorouracil]; details: max 20 µM
Summary of the method: as §1

Alisertib = compound: COc1cc(Nc2ncc3c(n2)-c2ccc(Cl)cc2C(c2c(F)cccc2OC)=NC3)ccc1C(=O)O [Alisertib]; details: max 10 µM
Summary of the method: as §1

AZD1775 = compound: C=CCn1c(=O)c2cnc(Nc3ccc(N4CCN(C)CC4)cc3)nc2n1-c1cccc(C(C)(C)O)n1 [AZD1775]; details: max 3 µM
Summary of the method: as §1

Olaparib = compound: O=C(c1cc(Cc2n[nH]c(=O)c3ccccc23)ccc1F)N1CCN(C(=O)C2CC2)CC1 [Olaparib]; details: max 10 µM
Summary of the method: as §1

MK-2206 = compound: NC1(c2ccc(-c3nc4ccn5c(=O)[nH]nc5c4cc3-c3ccccc3)cc2)CCC1 [MK-2206]; details: max 10 µM
Summary of the method: as §1

SG3199 = compound: CC1=CN2[C@@H](C1)C=NC3=CC(=C(C=C3C2=O)OC)OCCCCCOC4=C(C=C5C(=C4)N=C[C@@H]6CC(=CN6C5=O)C)OC [SG3199]; details: max 0.001 µM
Summary of the method: as §1

[1] = compound: O=C(Nc1ccc2[nH]nc(-c3ccncc3)c2c1)[C@@H]1CCN(CC(=O)N2CCN(c3ccc(-c4ncccn4)cc3)CC2)C1; details: max 5 µM
Summary of the method: as §1

Palbociclib = compound: CC(=O)c1c(C)c2cnc(Nc3ccc(N4CCNCC4)cn3)nc2n(C2CCCC2)c1=O [Palbociclib]; details: max 10 µM
Summary of the method: as §1

AZD0156 = compound: CN(C)CCCOc1ccc(-c2ccc3ncc4c(c3c2)n(C2CCOCC2)c(=O)n4C)cn1 [AZD0156]; details: max 3 µM
Summary of the method: as §1

Gefitinib = compound: COc1cc2ncnc(Nc3ccc(F)c(Cl)c3)c2cc1OCCCN1CCOCC1 [Gefitinib]; details: max 10 µM
Summary of the method: as §1

Etoposide = compound: COc1cc([C@@H]2c3cc4c(cc3[C@@H](O[C@@H]3O[C@@H]5CO[C@@H](C)O[C@H]5[C@H](O)[C@H]3O)[C@H]3COC(=O)[C@H]23)OCO4)cc(OC)c1O [Etoposide]; details: max 10 µM
Summary of the method: as §1

Paclitaxel = compound: CC(=O)O[C@H]1C(=O)[C@@]2(C)[C@H]([C@H](OC(=O)c3ccccc3)[C@]3(O)C[C@H](OC(=O)[C@H](O)[C@@H](NC(=O)c4ccccc4)c4ccccc4)C(C)=C1C3(C)C)[C@]1(OC(C)=O)CO[C@@H]1C[C@@H]2O [Paclitaxel]; details: max 3 µM
Summary of the method: as §1

AZD2811 = compound: CCN(CCO)CCCOc1ccc2c(Nc3cc(CC(=O)Nc4cccc(F)c4)[nH]n3)ncnc2c1 [AZD2811]; details: max 1 µM
Summary of the method: as §1

Trametinib = compound: CC(=O)Nc1cccc(-n2c(=O)n(C3CC3)c(=O)c3c(Nc4ccc(I)cc4F)n(C)c(=O)c(C)c32)c1 [Trametinib]; details: max 1 µM
Summary of the method: as §1

Savolitinib = compound: C[C@@H](c1ccc2nccn2c1)n1nnc2ncc(-c3cnn(C)c3)nc21 [Savolitinib]; details: max 1 µM
Summary of the method: as §1

AZD5153 = compound: COc1nnc2ccc(N3CCC(c4ccc(OCCN5CCN(C)C(=O)[C@H]5C)cc4)CC3)nn12 [AZD5153]; details: max 1 µM
Summary of the method: as §1

Doxorubicin = compound: COc1cccc2c1C(=O)c1c(O)c3c(c(O)c1C2=O)C[C@@](O)(C(=O)CO)C[C@@H]3O[C@H]1C[C@H](N)[C@H](O)[C@H](C)O1 [Doxorubicin]; details: max 1 µM
Summary of the method: as §1

AZD4320 = compound: CN(CC[C@H](CSC1=CC=CC=C1)NC2=C(C=C(C=C2)S(=O)(=O)NC(=O)C3=CC=C(C=C3)N4CCC(CC4)[C@H](C5=CC=CC=C5C6=CC=C(C=C6)Cl)O)S(=O)(=O)C(F)(F)F)CCO [AZD4320]; details: max 1 µM
Summary of the method: as §1

Carboplatin = compound: C1CC(C1)(C(=O)[O-])C(=O)[O-].N.N.[Pt+2] [Carboplatin]; details: max 10 µM
Summary of the method: as §1

AZD6738 = compound: C[C@@H]1COCCN1C2=NC(=NC(=C2)C3(CC3)[S@](=N)(=O)C)C4=C5C=CNC5=NC=C4 [AZD6738]; details: max 10 µM
Summary of the method: as §1

Lapatinib = compound: CS(=O)(=O)CCNCc1ccc(-c2ccc3ncnc(Nc4ccc(OCc5cccc(F)c5)c(Cl)c4)c3c2)o1 [Lapatinib]; details: max 10 µM
Summary of the method: as §1

Crizotinib = compound: C[C@@H](Oc1cc(-c2cnn(C3CCNCC3)c2)cnc1N)c1c(Cl)ccc(F)c1Cl [Crizotinib]; details: max 10 µM
Summary of the method: as §1

Venetoclax = compound: CC1(C)CCC(CN2CCN(c3ccc(C(=O)NS(=O)(=O)c4ccc(NCC5CCOCC5)c([N+](=O)[O-])c4)c(Oc4cnc5[nH]ccc5c4)c3)CC2)=C(c2ccc(Cl)cc2)C1 [Venetoclax]; details: max 1 µM
Summary of the method: as §1

Taselisib = compound: Cc1nc(-c2cn3c(n2)-c2ccc(-c4cnn(C(C)(C)C(N)=O)c4)cc2OCC3)n(C(C)C)n1 [Taselisib]; details: max 10 µM
Summary of the method: as §1

SRA737 = compound: N#Cc1cnc(Nc2cc(NC[C@H]3CNCCO3)c(C(F)(F)F)cn2)cn1 [SRA737]; details: max 10 µM
Summary of the method: as §1

Prexasertib = compound: COc1cccc(OCCCN)c1-c1cc(Nc2cnc(C#N)cn2)n[nH]1 [Prexasertib]; details: max 1 µM
Summary of the method: as §1

Selumetinib = compound: Cn1cnc2c(F)c(Nc3ccc(Br)cc3Cl)c(C(=O)NOCCO)cc21 [Selumetinib]; details: max 10 µM
Summary of the method: as §1

AZD7648 = compound: Cc1cc2ncnn2cc1Nc1ncc2c(n1)n(C1CCOCC1)c(=O)n2C [AZD7648]; details: max 10 µM
Summary of the method: as §1

Dasatinib = compound: CC1=C(C(=CC=C1)Cl)NC(=O)C2=CN=C(S2)NC3=CC(=NC(=N3)C)N4CCN(CC4)CCO [Dasatinib]; details: max 2 µM
Summary of the method: as §1

Cell Line | IC50, cell viability 72 h (AZD5991) [nM] | IC50, cell viability 72 h (AZD1390) [nM] | IC50, cell viability 72 h (Gemcitabine) [nM] | IC50, cell viability 72 h (AZD5363) [nM] | IC50, cell viability 72 h (SN-38) [nM] | IC50, cell viability 72 h (AZD8186) [nM] | IC50, cell viability 72 h (5-Fluorouracil) [nM] | IC50, cell viability 72 h (Alisertib) [nM] | IC50, cell viability 72 h (AZD1775) [nM] | IC50, cell viability 72 h (Olaparib) [nM] | IC50, cell viability 72 h (MK-2206) [nM] | IC50, cell viability 72 h (SG3199) [nM] | IC50, cell viability 72 h [1] [nM] | IC50, cell viability 72 h (Palbociclib) [nM] | IC50, cell viability 72 h (AZD0156) [nM] | IC50, cell viability 72 h (Gefitinib) [nM] | IC50, cell viability 72 h (Etoposide) [nM] | IC50, cell viability 72 h (Paclitaxel) [nM] | IC50, cell viability 72 h (AZD2811) [nM] | IC50, cell viability 72 h (Trametinib) [nM] | IC50, cell viability 72 h (Savolitinib) [nM] | IC50, cell viability 72 h (AZD5153) [nM] | IC50, cell viability 72 h (Doxorubicin) [nM] | IC50, cell viability 72 h (AZD4320) [nM] | IC50, cell viability 72 h (Carboplatin) [nM] | IC50, cell viability 72 h (AZD6738) [nM] | IC50, cell viability 72 h (Lapatinib) [nM] | IC50, cell viability 72 h (Crizotinib) [nM] | IC50, cell viability 72 h (Venetoclax) [nM] | IC50, cell viability 72 h (Taselisib) [nM] | IC50, cell viability 72 h (SRA737) [nM] | IC50, cell viability 72 h (Prexasertib) [nM] | IC50, cell viability 72 h (Selumetinib) [nM] | IC50, cell viability 72 h (AZD7648) [nM] | IC50, cell viability 72 h (Dasatinib) [nM]
LS-513 (Colorectal Carcinoma) | > 1000 | > 300 | 28.2 | > 10000 | 42.6 | > 10000 | 7250 | 1450 | 789 | > 10000 | 2310 | > 1 | 304 | 4870 | > 3000 | > 10000 | > 10000 | 70 | > 1000 | 3.66 | > 1000 | 334 | > 1000 | > 1000 | > 10000 | 2760 | 4210 | 4090 | > 1000 | 1300 | 6760 | 87 | 419 | > 10000 | > 2000
DSH1 (Bladder Carcinoma) | 914 | > 300 | 6.55 | > 10000 | 26.8 | > 10000 | > 20000 | > 10000 | 1920 | > 10000 | > 10000 | > 1 | 2060 | > 10000 | > 3000 | 792 | 7620 | 146 | > 1000 | 615 | > 1000 | 242 | 306 | > 1000 | > 10000 | 4620 | 457 | > 10000 | > 1000 | 2240 | > 10000 | 153 | > 10000 | > 10000 | > 2000
COR-L95 (Small Cell Lung Carcinoma) | > 1000 | > 300 | > 300 | > 10000 | 14.9 | > 10000 | > 20000 | > 10000 | > 3000 | > 10000 | > 10000 | > 1 | > 5000 | > 10000 | > 3000 | > 10000 | > 10000 | > 3000 | > 1000 | > 1000 | > 1000 | > 1000 | 150 | 7.32 | > 10000 | > 10000 | > 10000 | > 10000 | 392 | > 10000 | > 10000 | 123 | > 10000 | > 10000 | > 2000
DB (B-Cell Non-Hodgkin's Lymphoma) | 109 | > 300 | 8.96 | > 10000 | 4.52 | > 10000 | > 20000 | 3880 | 526 | > 10000 | > 10000 | > 1 | > 5000 | 7680 | > 3000 | > 10000 | 3690 | 5.71 | 537 | > 1000 | > 1000 | 210 | 251 | 143 | > 10000 | > 10000 | > 10000 | 7970 | 119 | > 10000 | > 10000 | 210 | > 10000 | > 10000 | > 2000
DOV13 (Ovarian Carcinoma) | > 1000 | > 300 | 11.8 | > 10000 | 9.35 | > 10000 | > 20000 | 1930 | 1110 | > 10000 | > 10000 | > 1 | > 5000 | 2020 | > 3000 | > 10000 | 2730 | 31.7 | 980 | > 1000 | > 1000 | 650 | 308 | 464 | > 10000 | 2130 | > 10000 | 7020 | > 1000 | 4650 | > 10000 | 40.7 | > 10000 | > 10000 | 165
